From patent US20140206028A1, “Stable Electrically Active Neurons from Adult Tissue” (University of Central Florida Research Foundation, Inc., priority 2011, published 2014)

What was measured:
Assay type in all cases: cell-based
[1] = test system: adult rat hippocampal neurons on MEAs; test: MEA recording of spontaneous activity, adult hippocampal neurons; settings: 25 μM antagonist, adult cultures
Method: Adult neurons were extracted, dissociated, cultured, and maintained. Briefly, the hippocampi of adult rats (Charles River, age 6-12 months) were dissected and homogenized into small tissue fragments in cold medium (˜4° C.) consisting of Hibernate-A, glutamax, and antibiotic-antimycotic. The tissue was digested for 30 minutes at 37° C. in calcium-free Hibernate-A (HA) containing 6 mg papain/12 ml (HA no calcium). Following digestion, the tissue was washed three times with cold HA media to remove any active enzyme. Next, the tissue was suspended in Dissociation Medium and broken apart into individual cells through mechanical dissociation with fire-polished Pasteur pipettes. The dissociated cells were suspended in Plating medium and then deposited onto DETA (N-1 [3-(trimethoxysilyl) propyl]-diethylenetriamine, United Chemical Technologies Inc., Bristol, Pa., T2910KG) coated glass cover slips. After 30-45 minutes, the cover slips were washed with warm HA by gently swirling the medium to remove tissue debris. Following this washing step, fresh Plating medium was applied and remained for the first 3 div. On 3 div the medium was removed and replaced by Maintenance Medium with 5 μM Roscovitine (Rosc, Sigma, R7772). All research was approved by the Institutional Animal Care and Use Committee at the University of Central Florida and conformed to NIH guidelines. After 4 div, the adult hippocampal neurons on the DETA cover slips were passaged to MEAs. Briefly, neurons were dislodged from the DETA with trypsin (0.05% trypsin/EDTA in HBSS, Gibco, 25200). Trypsin inhibitor (trypsin inhibitor, soybean, Gibco, 17075-029) in Dissociation medium at 0.5 mg per ml deactivated the trypsin. The dislodged neurons were collected and spun at 500×g for 5 minutes. The supernatant of deactivated trypsin in HBSS was discarded, and the neuronal cell pellet was suspended in 1 ml Plating medium. Immunocytochemistry and Laser Scanning Confocal Microscopy
(§1) The MEA chips (Axion Biosystems) provided 64 platinum-black coated gold-electrodes with a diameter of 30 μm, organized in an 8 by 8 array with 200 μm pitch. Clean MEAs were sterilized with 70% alcohol and then incubated with 1 ml poly-L-lysine (100 μg/ml) for 30 minutes. An area just large enough to cover all electrodes was additionally coated with 3 μl laminin (2 μg/ml) over night. Embryonic rat hippocampal neurons were plated directly on MEAs at a density of 500 cells/mm2. Adult rat hippocampal neurons were first cultured on DETA coated cover slips for recovery. […] After 4 days on DETA cover slips, the adult neurons were passaged onto MEAs at a density of 500 cells/mm2. Every 2-3 days, half the medium was replaced with fresh Maintenance medium supplemented with 2 μM Rosc.
(§2) MEAs were incubated with their covers off to allow gas exchange but covered upon removal from the incubator to reduce contamination, media evaporation, and gas exchange while recordings were taken. The head stage of the recording system (Axion Biosystems) was pre-heated to 37° C. before MEAs with adult or embryonic hippocampal cultures were investigated. The activity of neuronal networks was recorded with 25 kHz using the software Axion's Integrated Studio (AxIS). Signal amplitudes 6 times larger than the standard deviation of the base line were detected as action-potential spikes. The spike data was then imported into Matlab 2010b (The MathWorks) for further processing.
Baseline spontaneous activity in adult and embryonic neurons was recorded for 3 minutes on 5 consecutive days per week, starting on 7 div. The synaptic antagonists D-(−)-2-Amino-5-phosphonopentanoic acid (D-APS, 25 μM, Tocris Bioscience, 0106), 6-Cyano-7-nitroquinoxaline-2,3-dione disodium (CNQX, 25 μM, Tocris Bioscience, 1045), and (−)-Bicuculline methobromide (Bicuculline, 50 μM, Tocris Bioscience, 0109) were separately administered to both adult and embryonic neurons on 14 div and at various time points between 30 and 60 div. […]

[2] = test system: embryonic rat hippocampal neurons on MEAs; test: MEA recording of spontaneous activity, embryonic hippocampal neurons; settings: 25 μM antagonist, embryonic cultures
Method: Embryonic hippocampal neurons were cultured. Pregnant rats, 18 days in gestation, obtained from Charles River were euthanized with carbon dioxide and the fetuses were collected in ice-cold Hibernate E (BrainBits)/B27/Glutamaxtm/Antibiotic-antimycotic (Invitrogen) (Dissecting Medium). Each fetus was decapitated, and the whole brain was transferred to fresh ice cold dissecting medium. After isolation, the hippocampi were collected in a fresh tube of dissecting medium. The tissue was enzymatically digested at 37° C. for 10 minutes with papain (Worthington 3119), 12 mg/6 ml Hibernate-E (-calcium) (BrainBits)+0.5 mM Glutamax (Invitrogen). Hippocampal neurons were obtained by triturating the tissue using a fire-polished Pasteur pipette. After centrifugation, the cells were re-suspended in culture medium (Neurobasal/B27/Glutamaxtm/antibiotic-antimycotic) and plated on MEAs. All research was approved by the Institutional Animal Care and Use Committee at the University of Central Florida and conformed to NIH guidelines.
as §1, §2
Baseline spontaneous activity in adult and embryonic neurons was recorded for 3 minutes on 5 consecutive days per week, starting on 7 div. The synaptic antagonists D-(−)-2-Amino-5-phosphonopentanoic acid (D-APS, 25 μM, Tocris Bioscience, 0106), 6-Cyano-7-nitroquinoxaline-2,3-dione disodium (CNQX, 25 μM, Tocris Bioscience, 1045), and (−)-Bicuculline methobromide (Bicuculline, 50 μM, Tocris Bioscience, 0109) were separately administered to both adult and embryonic neurons on 14 div and at various time points between 30 and 60 div. Three minute recordings were made to quantify the effect from these antagonists on spontaneous activity. If necessary, additional baselines were recorded prior to the administration of antagonists. Each experiment was followed by a complete washout of the antagonist and replacement with fresh medium.
Data analysis was performed off-line using unpublished Matlab functions to evaluate spike files created during each MEA recording. […] In about 25% of the adult cultures and 14% of the embryonic cultures, portions of the neuronal networks detached from the substrate over time and especially after about 6 weeks. In order to accommodate the different numbers of active channels between MEAs, all values were corrected for the amount of active channels on an MEA. […]

[3] = test system: adult rat hippocampal neurons; test: Whole-cell patch-clamp electrophysiology of cultured adult hippocampal neurons (electrical recovery); settings: cycloheximide during incubation of confluent neurons with 25 μM glutamate
Method: Whole-cell, patch-clamp recordings were performed at room temperature. pH was adjusted to 7.3 with HEPES acid and base, ion concentrations with NaCl to approximately 130 mM, and osmolarity of 290-300 mOsm. Cells were visualized on the stage with a Zeiss Axioscope, 2 FS Plus, upright microscope in maintenance culture medium. Patch pipettes (4-8 M′Ω) were filled with intracellular solution (K-gluconate 140 mM, EGTA 1 mM, MgCl2 2 mM, Na2ATP 5 mM, HEPES 10 mM; pH 7.2), osmolarity approximately 260 mOsm. Voltage clamp and current clamp experiments were performed with a Multiclamp 700A (MDS Analytical Devices) amplifier. Signals were filtered at 3 kHz and digitized at 20 kHz with an Axon Digidata 1322A interface. Data recordings and analysis were performed with pClamp software. Whole-cell capacitance and series resistance were compensated electronically. Only cells with access resistance less than 22 M′Ω were analyzed. Inward currents that had the characteristics of fast sodium currents, and outward currents that had the characteristics of potassium currents were measured in voltage clamp mode using voltage steps of 10 mV from a −70 mV holding potential. Action potentials were measured with 1 s depolarizing current injections to elicit action potentials from a −70 mV holding potential. Cells were morphologically selected for electrophysiological characterization. […]

Compound	loss of channel activity (active channels) versus baseline ([1]; 14 div) [%]	lowering of action potential frequency versus baseline ([1]; 14 div) [%]	loss of channel activity (active channels) versus baseline ([1]; 30-60 div) [%]	lowering (drop) of action potential frequency versus baseline ([1]; 30-60 div) [%]	increase of firing rate versus baseline ([2]; 14 div) [%]	loss of channel activity (active channels) versus baseline ([2]; 14 div) [%]	decrease (drop) of firing rate versus baseline ([2]; 30-60 div) [%]	loss of channel activity (active channels) versus baseline ([2]; 30-60 div) [%]	glutamate-induced improvements in neuronal electrical activity [3]
N[C@H](CCCP(=O)(O)O)C(=O)O [D-AP5, D-(−)-2-Amino-5-phosphonopentanoic acid]	90±6	76±8	82±6	82±17	90±6	65±4	70±7	36±7	–
C[C@@H]1C[C@@H]([C@H](O)CC2CC(=O)NC(=O)C2)C(=O)[C@@H](C)C1 [cycloheximide]	–	–	–	–	–	–	–	–	completely blocked
